Legend:
[1] = tested on: cultured human mast cells (CHMC); assay: CHMC low cell density IgE activation: tryptase and LTC4 assays; format: cell-based; conditions: Low Density CHMC, anti-IgE activation
Method: Pellet CHMC cells (980 rpm, 10 min) and resuspend in pre-warmed MT. Add 65 ul of cells to each 96-well plate. Depending on the degranulation activity for each particular CHMC donor, load 1000-1500 cells/well. Mix four times followed by a 1 hr incubation at 37° C. […] Stimulate cells by adding 25 ul of 6× anti-IgE solution to the appropriate plates. Add 25 ul MT to un-stimulated control wells. Mix twice following addition of the anti-IgE. Incubate at 37° C. for 30 minutes. […] Spin plates at 1000 rpm for 10 min to pellet cells. Transfer 25 ul of supernatant to a 96-well black bottom plate and add 100 ul of freshly diluted tryptase substrate solution to each well. Incubate plates at room temperature for 30 min.
Leukotriene C4 (LTC4) is also quantified using an ELISA kit on appropriately diluted supernatant samples (determined empirically for each donor cell population so that the sample measurement falls within the standard curve) following the supplier's instructions.

[2] = tested on: cultured human mast cells (CHMC); assay: CHMC low cell density ionomycin activation: tryptase assay; format: cell-based; conditions: Low Density CHMC, ionomycin activation, tryptase readout, read-out: CHMC Ionomycin Tryptase
[3] = Homo sapiens, Mast cell, tryptase readout, read-out: CHMC anti-IgE Tryptase

Structure (SMILES)	IC50 [1, 3] [µM]	IC50 ([2]; Homo sapiens, Mast cell) [µM]	IC50 ([1]; tryptase readout, read-out: CHMC anti-IgE Tryptase) [µM]	IC50 [2] [µM]	IC50 ([1]; Homo sapiens, Mast cell, LTC4 readout, read-out: CHMC anti-IgE LTC4) [µM]
CNC(=O)C1Cc2cc(Nc3ncc(F)c(Nc4ccc(F)c(F)c4)n3)ccc2O1 (racemic) [Compound R927035, (±)-N4-(3,4-Difluorophenyl)-5-fluoro-N2-[2,3-dihydro-2-(N-methylamino)carbonylbenzofuran-5-yl]-2,4-pyrimidinediamine]	0.583	> 10			
CNC(=O)C1Cc2cc(Nc3ncc(F)c(Nc4ccc(Cl)c(Cl)c4)n3)ccc2O1 (racemic) [Compound R927037, (±)-N4-(3,4-Dichlorophenyl)-N2-[2,3-dihydro-2-(N-methylamino)carbonylbenzofuran-5-yl]-5-fluoro-2,4-pyrimidinediamine]	0.233	> 10			
CNC(=O)C1Cc2cc(Nc3ncc(F)c(Nc4ccc(OC)nc4OC)n3)ccc2O1 (racemic) [Compound R927038, (±)-N4-(2,6-Dimethoxypyridin-3-yl)-N2-[2,3-dihydro-2-(N-methylamino)carbonylbenzofuran-5-yl]-5-fluoro-2,4-pyrimidinediamine]	1.05	> 10			
CC(Nc1nc(Nc2cccc(O)c2)ncc1F)c1ccc(F)cc1 (racemic) [Compound R935021, (±)-5-Fluoro-N4-[1-(4-fluorophenyl)ethyl]-N2-(3-hydroxyphenyl)-2,4-pyrimidinediamine]	> 10	> 10			
CC(Nc1nc(Nc2cccc(O)c2)ncc1Br)c1ccc(F)cc1 (racemic) [Compound R935023, (±)-5-Bromo-N4-[1-(4-fluorophenyl)ethyl]-N2-(3-hydroxyphenyl)-2,4-pyrimidinediamine]	> 10	> 10			
O=C1COc2cc(Nc3ncc(F)c(Nc4cccc(O)c4)n3)ccc2N1 [Compound R908699, N2-(1,4-Benzoxazin-3-on-7-yl)-5-fluoro-N4-(3-hydroxyphenyl)-2,4-pyrimidinediamine]	0.217	> 10			
O=C1COc2ccc(Nc3nc(Nc4cccc(O)c4)ncc3F)cc2N1 [Compound R908702, N4-(1,4-Benzoxazine-3-on-6-yl)-5-fluoro-N2-(3-hydroxyphenyl)-2,4-pyrimidinediamine]	0.104	7.4			
CN1C(=O)COc2ccc(Nc3ncc(F)c(Nc4cccc(O)c4)n3)cc21 [Compound R908703, 5-Fluoro-N4-(3-hydroxyphenyl)-N2-(N-methyl-1,4-benzoxazine-3-on-6-yl)-2,4-pyrimidinediamine]	0.63	> 10			
CN1C=COc2cc(Nc3ncc(F)c(Nc4cccc(O)c4)n3)ccc21 [Compound R908704, 5-Fluoro-N4-(3-hydroxyphenyl)-N2-(N-methyl-1,4-benzoxazin-7-yl)-2,4-pyrimidinediamine]	0.511	> 10			
Oc1cccc(Nc2nc(Nc3ccc4c(c3)OCC=N4)ncc2F)c1 [Compound R908706, N2-(1,4-Benzoxazin-7-yl)-5-fluoro-N4-(3-hydroxyphenyl)-2,4-pyrimidinediamine]	0.445	> 10			
CN1C=COc2cc(Nc3nc(Nc4cccc(O)c4)ncc3F)ccc21 [Compound R908707, 5-Fluoro-N2-(3-hydroxyphenyl)-N4-(N-methyl-1,4-benzoxazin-7-yl)-2,4-pyrimidinediamine]	1.83	> 10			
CN1C=COc2ccc(Nc3nc(Nc4cccc(O)c4)ncc3F)cc21 [Compound R908710, 5-Fluoro-N2-(3-hydroxyphenyl)-N4-(N-methyl-1,4-benzoxazin-6-yl)-2,4-pyrimidinediamine]	1.84	99			
Oc1cccc(Nc2ncc(F)c(Nc3ccc4c(c3)N=CCO4)n2)c1 [Compound R909243, N4-(1,4-benzoxazin-6-yl)-5-fluoro-N2-(3-hydroxyphenyl)-2,4-pyrimidinediamine]	0.263	> 10			
COc1cc(Nc2ncc(F)c(Nc3ccc4c(c3)N=CCO4)n2)cc(OC)c1 [Compound R909245, N4-(1,4-Benzoxazin-6-yl)-N2-(3,5-dimethoxyphenyl)-5-fluoro-2,4-pyrimidinediamine]	0.255	6.24			
CC(C)(C)c1cccc(Nc2ncc(F)c(Nc3ccc4c(c3)N=CCO4)n2)c1 [Compound R909246, N4-(1,4-Benzoxazin-6-yl)-N2-(3-tert-butylphenyl)-5-fluoro-2,4-pyrimidinediamine]	0.169	> 10			
OCCOc1ccc(Nc2ncc(F)c(Nc3ccc4c(c3)N=CCO4)n2)cc1 [Compound R909248, N4-(1,4-Benzoxazin-6-yl)-5-fluoro-N2-[4-(2-hydroxyethyl)oxyphenyl]-2,4-pyrimidinediamine]	3.58	> 10			
Oc1cccc(Nc2nc(Nc3ccc4c(c3)CCO4)ncc2F)c1 [Compound R909250, N2-(2,3-Dihydrobenzofuran-5-yl)-5-fluoro-N4-(3-hydroxyphenyl)-2,4-pyrimidinediamine]	8.03	> 10			

Structure (SMILES)	IC50 [1, 3] [µM]	IC50 ([2]; Homo sapiens, Mast cell) [µM]	IC50 ([1]; tryptase readout, read-out: CHMC anti-IgE Tryptase) [µM]	IC50 [2] [µM]	IC50 ([1]; Homo sapiens, Mast cell, LTC4 readout, read-out: CHMC anti-IgE LTC4) [µM]
Cc1cc(Nc2ncc(F)c(Nc3ccc4c(c3)N=CCO4)n2)cc(Cl)c1O [Compound R909255, N4-(1,4-Benzoxazin-6-yl)-N2-(3-chloro-4-hydroxy-5-methylphenyl)-5-fluoro-2,4-pyrimidinediamine]	0.244	> 10			
Oc1cccc(Nc2ncc(F)c(Nc3ccc(OC(F)(F)F)c(Cl)c3)n2)c1 [Compound R920411, N4-(3-Chloro-4-trifluoromethoxyphenyl)-5-fluoro-N2-(3-hydroxyphenyl)-2,4-pyrimidinediamine]	0.564	> 10			
CCCCCCOc1ccc(Nc2ncc(F)c(Nc3ccc4c(c3)OCCO4)n2)cc1 [Compound R920664, N4-(3,4-Ethylenedioxyphenyl)-5-fluoro-N2-(4-n-hexyloxyphenyl)-2,4-pyrimidindiamine]	> 10	> 10			
CCCCOc1ccc(Nc2cc(Nc3ccc4c(c3)OCCO4)c(F)cn2)cc1 [Compound R920666, N2-(4-n-Butyloxyphenyl)-N4-(3,4-ethylenedioxyphenyl)-5-fluoro-2,4-pyridinediamine]	2.53	> 10			
Fc1cnc(Nc2cccnc2)nc1Nc1ccc2c(c1)OCCO2 [Compound R920668, N4-(3,4-Ethylenedioxyphenyl)-5-fluoro-N2-(3-pyridyl)-2,4-pyrimidinediamine]	3.2	> 10			
CCCCOc1ccc(Nc2cc(Nc3ccc4c(c3)OCCO4)ncc2F)cc1 [Compound R920671, N4-(4-n-Butyloxyphenyl)-N2-(3,4-ethylenedioxyphenyl)-5-fluoro-2,4-pyridinediamine]	> 10	> 10			
CCCCCCOc1ccc(Nc2cc(Nc3ccc4c(c3)OCCO4)ncc2F)cc1 [Compound R920672, N4-(4-n-Hexyloxyphenyl)-N2-(3,4-ethylenedioxyphenyl)-5-fluoro-2,4-pyridinediamine]	> 10	> 10			
Oc1cccc(Nc2nc(Nc3ccc(OCc4nnn[nH]4)cc3)ncc2C(F)(F)F)c1 [Compound R920846]			> 10	> 10	
CCOC(=O)c1cccc(Nc2ncc(F)c(Nc3ccc4c(c3)OCCO4)n2)c1 [Compound R925745, N2-(3-Ethoxycarbonylphenyl)-N4-(3,4-ethylenedioxyphenyl)-5-fluoro-2,4-pyrimidinediamine]	1.77	> 10			
OCc1cccc(Nc2ncc(F)c(Nc3cccc(CO)c3)n2)c1 [Compound R925757, N2,N4-Bis(3-(hydroxymethyl)phenyl)-5-fluoro-2,4-pyrimidinediamine]	2.8	> 10			
OCc1cccc(Nc2nc(Nc3ccc4c(c3)OCCO4)ncc2F)c1 [Compound R925758, N2-(3,4-Ethylenedioxyphenyl)-5-fluoro-N4-[3-(hydroxymethyl)phenyl]-2,4-pyrimidinediamine]	1.18	> 10			
Nc1nc(N(c2ccc(CO)cc2)c2ccc3c(c2)OCCO3)ncc1F [Compound R925760, N2-(3,4-Ethylenedioxyphenyl)-5-fluoro-N2-[4-(hydroxymethyl)phenyl]-2,4-pyrimidinediamine]	4.85	> 10			
Nc1nc(N(CC(O)c2ccccc2)c2ccc3c(c2)OCCO3)ncc1F (stereo not shown) [Compound R925765, N2-(3,4-Ethylenedioxyphenyl)-5-fluoro-N2-(2-hydroxy-2-phenylethyl)-2,4-pyrimidinediamine]	6.8	> 10			
Brc1cnc(Nc2ccc3c(c2)OCCO3)nc1Nc1ccc2c(c1)OCCO2 [Compound R925771, N2,N4-Bis(3,4-ethylenedioxyphenyl)-5-bromo-2,4-pyrimidinediamine]	0.5	2.8			0.22
Fc1cnc(NCc2ccccc2)nc1NCc1ccccc1 [Compound R925772, N2,N4-Dibenzyl-5-fluoro-2,4-pyrimidinediamine]	> 10	> 10			
N#Cc1cnc(Nc2ccc3c(c2)OCCO3)nc1Nc1ccc2c(c1)OCCO2 [Compound R925773, N2,N4-Bis(3,4-ethylenedioxyphenyl)-5-cyano-2,4-pyrimidinediamine]	0.673	> 10			

— patent publication US10828301B2, “2,4-pyrimidinediamine compounds and their uses” (Rigel Pharmaceuticals, Inc, priority 2002, dated 2020)
